# Experimental data from patent US20140031296A1, “NEW SYNTHETIC PEPTIDES AND THEIR USE” (PERGAMUM AB, priority 2011, published 2014).
# How the values were obtained:
# [1] = test system: TNF-α production in LPS stimulated THP-1 cells; assay: Inhibition of TNF-α production in LPS stimulated THP-1 cells (ELISA); assay type: cell-based, human; settings: mean relative secretion, basal = 0%; for TNF-α at 40 μM peptide: LPS-stimulated level without peptide = 100%; for TNF-α at 4 μM peptide / TNF-α at 10 μM peptide: stimulated = 100%
# Method: (§1) After 6 hours of incubation at +37° C., 5% CO2 and in a humid atmosphere, the cell supernatants were collected, centrifuged and kept frozen in −20° C. until analyzed for TNF-α content by ELISA (R&D Systems, Minneapolis, Minn., USA). The results are presented as mean relative secretion (%), with stimulated TNF-α level without peptide added set to 100% and basal secretion set to 0% (Table 2).
# as §1, with “incubation,” for “incubation at +37° C., 5% CO2 and in a humid atmosphere,”, “centrifuged,” for “centrifuged”, “5).” for “2).”
# S. aureus (CCUG 1800) = assay: Minimal microbicidal concentration (MMC99) assay, S. aureus; assay type: cell-based; settings: 2 hours; for MMC99 μM in 50% SWF: 50% heat inactivated simulated wound fluid
# Method: Antimicrobial Activity was Measured as Bactericidal Effect on S. aureus Using Minimal Microbicidal Concentration, MMC99, Assay)
# S. aureus (#1800; CCUG, Gothenburg, Sweden) cultured on blood-agar plates [Columbia agar (Oxoid, Basingstoke, UK) supplemented with 5% defibrinated horse blood (National Veterinary Institute (SVA), Uppsala, Sweden)] were transferred to brain heart infusion broth (3.7% BHI; Difco, BD Diagnostics, Franklin Lakes, N.J., USA) and incubated in a shaker at 250 rpm+37° C. over night. The culture was thereafter be diluted 1:10 in fresh BHI broth and incubated for additional two hours to reach log-phase growth. The bacteria were pelleted and suspended in 1% BHI medium (BHI broth diluted 100 times in ultra-pure water) to a concentration of 10^7 bacteria/ml as estimated by measuring optical density at 600 nm. Peptides were serially diluted by two-fold steps from 160 μM to 1.25 μM in 1% BHI medium. The peptides (100 μl) were thereafter incubated with bacteria (5 μl á 10^7 bact./ml) for 2 hours at +37° C. Drops (5 μl) of the suspension were placed on blood agar plates. The blood agar plates were incubated over night at +37° C. The MMC99 values, i.e. the lowest peptide concentration needed to achieve a 99% reduction of viable bacteria, were recorded (Table 3). The concentration of the bacterial suspension used in the assay was confirmed by viable counts on blood agar plates.
# S. aureus (#1800; CCUG, Gothenburg, Sweden) cultured on blood-agar plates [Columbia agar (Oxoid, Basingstoke, UK) supplemented with 5% defibrinated horse blood (National Veterinary Institute (SVA), Uppsala, Sweden)] were transferred to brain heart infusion broth (3.7% BHI; Difco, BD Diagnostics, Franklin Lakes, N.J., USA) and incubated in a shaker at 250 rpm+37° C. over night. The culture was thereafter be diluted 1:10 in fresh BHI broth and incubated for additional two hours to reach log-phase growth. The bacteria were pelleted and suspended in 1% BHI medium (BHI broth diluted 100 times in ultra-pure water) to a final concentration of 10^7 bacteria/ml as estimated by measuring optical density at 600 nm.
# Peptides were serially diluted by two-fold steps from 400 μM to 0.78 μM in either 1% BHI medium or in 50% heat inactivated simulated wound fluid [SWF, containing 1 part 0.1% peptone (Oxoid, Basingstoke, UK) in saline and 1 part fetal bovine serum, diluted 2 times in ultra-pure water].
# The peptides (100 μl) were thereafter incubated with bacteria (5 μl a 10^7 bact./ml) for 2 hours at +37° C. Drops (5 μl) of the suspension were placed on blood agar plates. The blood agar plates were incubated over night at +37° C. The MMC99 values, i.e. the lowest peptide concentration needed to achieve a 99% reduction of viable bacteria were recorded (Table 6). The concentration of the bacterial suspension used in the assay was confirmed by viable counts on blood agar plates.
# The antimicrobial effects of the peptides 232 (SEQ ID NO: 78), and 220 (SEQ ID NO:67) were analysed by MMC99 (minimal microbicidal concentration) assay against S. aureus (CCUG 1800), MRSA (CCUG 41879), P. aeruginosa (ATCC 15442), E. coli (CCUG 31246), S. pyogenes (CCUG 4207), P. acnes (CCUG 1794T), S. epidermidis (ATCC12228), K. pneumoniae (ATCC 13883), A. baumannii (ATCC 19606), and C. albicans (ATCC 64549). The peptides were purchased from Biopeptide Company (San Diego, Calif., USA) and Bachem AG (Bubendorf, Switzerland) and results are presented in Table 8A and 8B respectively.
# Peptides were serially diluted in two different assay medium, 1% BHI medium (brain-heart infusion medium) or 50% heat inactivated simulated wound fluid (SWF), and thereafter incubated with the microorganisms for 2 hours. Drops of the suspension were placed on blood agar plates. The MMC99 values, i.e. the lowest peptide concentration needed to achieve a 99% reduction of viable microorganisms, were recorded. As presented in Table 8, all the peptides have the ability to kill microorganisms frequently appearing in infections. […]
# [2] = screen 1, 99% reduction of viable bacteria
Sequence,TNF-α at 40 μM peptide ([1]; screen 1) [%],MMC99 μM in 1% BHI medium (S. aureus (CCUG 1800); [2]) [µM],TNF-α at 4 μM peptide ([1]; screen 2) [%],TNF-α at 10 μM peptide ([1]; screen 2) [%],TNF-α at 40 μM peptide ([1]; screen 2) [%],MMC99 μM in 1% BHI medium (S. aureus (CCUG 1800); screen 2) [µM],MMC99 μM in 50% SWF (S. aureus (CCUG 1800); screen 2) [µM]
FWWQRKMRKVR [Peptide 131],87,5,,,,,
QTEADKCFQWQRNMRKVR [Peptide 105],87,>160,,,,,
KKLWRRWWRKVL [Peptide 244],,,107.7,116.7,10.7,12.5,50
KRQSLARTFKQWARNLRKVL [Peptide 215],,,86.6,69.6,1.3,6.25,25
RWCFLWRRLMRKHRRL [Peptide 240],,,78.3,59.9,,12.5,25
CFQWKRAMRKVR [Peptide 123],156,20,,,,,
QTEADKCFQWQRNMRKVR [Peptide 106] (QNEADKCFQWQRNMRKVR),96,160,,,,,
QKRATKRFQWLRNLRKVL [Peptide 205],,,91.5,89.5,28.3,12.5,50
QSEATKCFQWLRNMRKVR [Peptide 113],22,>160,,,,,
FQWRRAIRKVR [Peptide 125],150,20,,,,,
FQWKPAIRKVR [Peptide 140],117,>160,,,,,
QSEATKRFQWLRNLRKVLGP [Peptide 213],,,110.3,125.5,84.4,25,200
CFQWQKRMKRVK [Peptide 148],132,20,,,,,
TQPDATKCFQWQRNMRKVR [Peptide 103],135,>160,,,,,
SEAEKCFQWQRNMRKVR [Peptide 110],102,>160,,,,,
FQWQRNIRKIR [Peptide 134],109,40,,,,,
FQWQRPIRKVR [Peptide 137],137,>160,,,,,

Sequence,TNF-α at 40 μM peptide ([1]; screen 1) [%],MMC99 μM in 1% BHI medium (S. aureus (CCUG 1800); [2]) [µM],TNF-α at 4 μM peptide ([1]; screen 2) [%],TNF-α at 10 μM peptide ([1]; screen 2) [%],TNF-α at 40 μM peptide ([1]; screen 2) [%],MMC99 μM in 1% BHI medium (S. aureus (CCUG 1800); screen 2) [µM],MMC99 μM in 50% SWF (S. aureus (CCUG 1800); screen 2) [µM]
QSEATKRFQWLRNLRKVLWW [Peptide 212],,,90.9,85.8,25.7,12.5,100
CLNFKRGVRKIR [Peptide 141],109,20,,,,,
QSLATKLFQWLRNLRKVR [Peptide 114],15,2.5,,,,,
CFKWKRKMRKVR [Peptide 147],111,10,,,,,
QSEATKRFQWLRNLRKVLKR [Peptide 211],,,100.7,89.8,62.8,6.25,100
FQWQRRIRKVR [Peptide 124],128,20,,,,,
FQWQRNLRKLR [Peptide 135],103,20,,,,,
QSERKKRFQWLRNLRKVL [Peptide 206],,,96.9,92.9,51.0,12.5,100
NQPTATKCFQWQRNMRKVR [Peptide 102],108,>160,,,,,
QSLAEKLFQWLRNLRKVR [Peptide 117],13,2.5,,,,,
QSLAHSLFQWLRNLRKVR [Peptide 218],,,81.8,55.7,9.2,6.25,50
NEADKCFQWQRNMRKVR [Peptide 109],47,160,,,,,
QPEATKCFPWQRNMRKVR [Peptide 118],113,>160,,,,,
QSLARTFKQWARNLRKVL [Peptide 209],,,88.0,68.2,23.6,12.5,100
QSLATKCFQWQRNMRKVR [Peptide 111],121,20,,,,,
QSEATKLFQWQRNMRKVR [Peptide 112],101,>160,,,,,
